Data taken from paper PMC2669294, “The Spliceosomal Phosphopeptide P140 Controls the Lupus Disease by Interacting with the HSC70 Protein and via a Mechanism Mediated by γδ T Cells” (PLoS ONE, 2009).
Non-standard residues stand in square brackets, D forms with d. Residues, ends and D or L forms follow the SMILES beside them. No end group written: not given here. pS = N[C@@H](COP(=O)(O)O)C(=O)O

B1: non-phosphorylated peptide 131-151 of the U1-70K snRNP protein (peptide)
peptide: RIHMVYSKRSGKPRGYAFIEY
notes: also called non-phosphorylated analogue; source: synthetic peptide
B2: P140 peptide (U1-70K snRNP protein residues 131-151, phosphorylated on Ser140) (peptide)
peptide: RIHMVYSKR[pS]GKPRGYAFIEY
notes: pS is the phosphoserine; also called phosphopeptide P140; source: synthetic peptide

Columns and labels:
Recombinant bovine HSC70 [1] = biological target: T1, Recombinant bovine HSC70 (Bos taurus, UniProt P19120); assay: Surface plasmon resonance, direct binding of peptides to immobilized HSC70; settings: SPR BIAcore 3000, HSC70 immobilized via thiol groups on CM5, HBS-EP pH 7.4, 25°C, peptide 1.56 to 12.5 µM, 1:1 Langmuir model; for kon: read-out: association rate constant (kon); for koff: read-out: dissociation rate constant (koff)
T1 construct: purchased Stressgen
Protocol: To assess P140 binding to HSC70, we investigated the binding parameters and kinetics by surface plasmon resonance. HSC70 was immobilized onto the sensor chip via one of its four thiol groups, and different concentrations of P140 and 131–151 peptides were injected in the flux followed by a dissociation phase (see the overlay surface plasmon resonance plots of the raw data in Figure 1B). […] Similar data were obtained when biotinylated P140 was on the chip and HSC70 in solution. Thus, in this in vitro system, both peptides bind with medium affinity (µM range) to HSC70. […] Of significant importance, no binding was observed between P140 and Hsp70.
BIAcore 3000 system (Biacore AB) was used to evaluate the binding of P140 peptide to HSC70 protein. Sensor chip CM5, surfactant P20, amine coupling kit containing N-hydroxysuccinimide (NHS) and N-ethyl-N′-dimethylaminopropyl carbodiimide (EDC), 2-(2-pyridinyldithio)ethaneamine (PDEA) and ethanolamine were from Biacore AB. Biosensor assays were performed with HBS-EP buffer as running buffer (10 mM HEPES, 150 mM NaCl, 3 mM EDTA, 0.005% surfactant P20, pH 7.4). The different compounds were diluted in the running buffer. The sensor chip surface was regenerated after each experiment by injecting 10 µL of 10 mM HCl. Recombinant bovine HSC70 (Stressgen) was immobilized on flow cells of a CM5 sensor chip through its thiol groups using 35 µL PDEA in 50 mM borate buffer, pH 8.3 on the NHS/EDC-activated matrix. Then, 35 µL of HSC70 (100 µg/mL in formate buffer, pH 4.3) were injected until a response of 13,000 response units (RU) corresponding to 13 ng/mm^2 of HSC70 was immobilized. Twenty µL of a 50 mM cysteine/1 M NaCl solution was used to saturate unoccupied sites on the chip. The direct binding measurement of P140 peptides to HSC70 was carried out at 25°C with a constant flow rate of 20 µL/min. P140 peptide and analogues were injected in the flux at different concentrations for 3 min, followed by a dissociation phase of 3 min. The kinetic parameters were calculated using the BIAeval 3.1 software on a personal computer. Analysis was performed using the simple 1∶1 Langmuir binding model. The specific binding profiles were obtained after subtracting the response signal from the control empty channel and from blank-buffer injection. The fitting to each model was judged by the χ square value and randomness of residue distribution compared to the theoretical model.

[2] = Solubility limit by dynamic light scattering; format: physicochemical
Protocol: The solubility of P140 and 131–151 peptides was determined at 20 and 37°C using dynamic light scattering measurements. […] The integrity of P140, as measured in saline and PBS by high-performance liquid chromatography from the area of the peak corresponding to the intact peptide, remained intact during at least 60 days at 37°C (Figure 2D).
The synthesis and purification of P140 peptide (RIHMVYSKRpSGKPRGYAFIEY; produced under Good Manufacturing Practice conditions), and of peptides 131–151 ([…]) and ScP140 (YVSRYFGpSAIRHEPKMKIYRG) were described previously, [3], [7]. For the biotin-labeled peptides, the biotin moiety was introduced at the end of peptide assembly as a Fmoc-Lys(biotin)-OH derivative. Homogeneity of peptides was checked by analytical high-performance liquid chromatography, and their identity was assessed by matrix-assisted laser desorption and ionization time-of-flight (TOF) mass spectrometry using a Protein TOF apparatus (Bruker Spectrospin). The solubility limits of both peptides in the cell culture medium RPMI 1640, PBS and distilled water were determined at 20 and 37°C using dynamic light scattering measurements.

SLE patients = settings: human, in vivo; cited from earlier work
MRL/lpr mice = test system: MRL/lpr mice; parameters: method as in PMID 2397613; settings: cited from earlier work
[3] = biological target: HSC70 (heat-shock cognate 71-kDa protein) (UniProt P63017); assay: biotin-peptide on cells, lysis, avidin-agarose pull-down; settings: reference: non-phosphorylated biotin-peptide 131-151; sites S140
recombinant bovine HSC70 [4] = biological target: T2, recombinant bovine HSC70 (bovine, UniProt P19120 1-650); assay: SPR; BIAcore 3000; recombinant bovine HSC70 immobilised on CM5 chip through its thiol groups (13,000 RU); peptides injected (1.56 to 12.5 µM) 3 min, dissociation 3 min; 25°C, 20 µL/min; HBS-EP pH 7.4; 1:1 Langmuir model; settings: both partners purified
T2 construct: heat-shock cognate HSC70 protein, bovine, recombinant (Stressgen); Immobilised through one of its four thiol groups in the SPR experiment; no tag is named; also called recombinant HSC70 protein; source: bought: Stressgen (recombinant)
T2 sequence (P19120 whole entry): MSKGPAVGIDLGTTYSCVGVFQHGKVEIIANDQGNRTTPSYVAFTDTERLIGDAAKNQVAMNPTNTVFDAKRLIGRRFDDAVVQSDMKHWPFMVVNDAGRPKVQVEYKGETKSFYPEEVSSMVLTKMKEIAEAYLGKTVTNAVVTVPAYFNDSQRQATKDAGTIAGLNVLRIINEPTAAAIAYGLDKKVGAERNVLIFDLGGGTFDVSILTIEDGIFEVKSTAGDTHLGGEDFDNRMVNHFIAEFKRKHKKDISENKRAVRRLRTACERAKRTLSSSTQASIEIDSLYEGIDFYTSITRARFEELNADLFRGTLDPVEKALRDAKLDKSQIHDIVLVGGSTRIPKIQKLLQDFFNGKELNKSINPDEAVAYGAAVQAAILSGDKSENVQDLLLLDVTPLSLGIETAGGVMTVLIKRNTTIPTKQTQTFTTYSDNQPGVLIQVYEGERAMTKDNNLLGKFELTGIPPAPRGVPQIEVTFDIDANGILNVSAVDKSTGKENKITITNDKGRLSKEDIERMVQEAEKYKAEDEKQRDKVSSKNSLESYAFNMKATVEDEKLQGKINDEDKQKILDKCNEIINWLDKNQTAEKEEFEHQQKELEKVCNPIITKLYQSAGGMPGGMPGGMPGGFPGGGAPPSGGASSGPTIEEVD

T1 sequence (P19120 whole entry): as above

| Molecule | kon (Recombinant bovine HSC70 [1]) | koff (Recombinant bovine HSC70 [1]) | Kd (recombinant bovine HSC70 [4]) | further results |
| --- | --- | --- | --- | --- |
| CC[C@H](C)[C@H](NC(=O)[C@H](Cc1ccccc1)NC(=O)[C@H](C)NC(=O)[C@H](Cc1ccc(O)cc1)NC(=O)CNC(=O)[C@H](CCCNC(=N)N)NC(=O)[C@@H]1CCCN1C(=O)[C@H](CCCCN)NC(=O)CNC(=O)[C@H](COP(=O)(O)O)NC(=O)[C@H](CCCNC(=N)N)NC(=O)[C@H](CCCCN)NC(=O)[C@H](CO)NC(=O)[C@H](Cc1ccc(O)cc1)NC(=O)[C@@H](NC(=O)[C@H](CCSC)NC(=O)[C@H](Cc1c[nH]cn1)NC(=O)[C@@H](NC(=O)[C@@H](N)CCCNC(=N)N)[C@@H](C)CC)C(C)C)C(=O)N[C@@H](CCC(=O)O)C(=O)N[C@@H](Cc1ccc(O)cc1)C(=O)O [P140] (HELM PEPTIDE1{R.I.H.M.V.Y.S.K.R.[O=C([C@H](COP(=O)(O)O)N[*:1])[*:2]].G.K.P.R.G.Y.A.F.I.E.Y}$$$$V2.0) | 530 M⁻¹ s⁻¹ | 0.00388 s⁻¹ |  | solubility ([2]; in water): highly soluble |
| N=C(N)NCCCCCCC(=O)NC(O)C(=O)NCCCCNCCCN (centres unmarked) [15-deoxyspergualin] |  |  |  | treated patients with non-severe infectious episodes (SLE patients): two of three; progression of polyclonal B cell activation and lupus nephropathy (MRL/lpr mice): suppressed the progression |
| U1-70K small nuclear ribonucleoparticle protein 131-151 (from UniProt Q62376) biotin-P140 (pS140) |  |  |  | binding against the reference [3]: same |
| RIHMVYSKRSGKPRGYAFIEY [131–151] | 606 M⁻¹ s⁻¹ | 0.00407 s⁻¹ |  | solubility ([2]; 200 µM-solution in water, PBS and culture medium (RPMI 1640), 20 and 37°C): highly soluble |
| B1 |  |  | 6.72 µM |  |
| B2 |  |  | 7.32 µM |  |
